Measurements: patent US20090209620A1, “Direct Reversal Of The Suppressive Function Of CD4+Regulatory T Cells Via Toll-Like Receptor 8 Signaling” (priority 2005, published 2009)
Entries after “also recorded” stand apart in the source; their conditions may differ. In the oligonucleotide strings, read from the 5' end, every base follows the letter of its sugar. An asterisk marks phosphorothioate; unmarked linkages are phosphodiester. Other units and linkages are bracketed, terminal groups are in braces. A string of capitals states the bases alone. d = 2'-deoxy (DNA)

tested on: CD4+ Treg cells (Treg102, Treg164); experiment: Proliferation assay without DCs: Treg suppression of naive CD4+ T cell proliferation, anti-CD3-coated plates; type: cell-based, human; conditions: absence of DCs; anti-CD3-coated plates; oligonucleotides 3 ug/ml in medium
Excerpt: Establishing Treg cell lines and purifying natural CD4^+ CD25^+ Treg cells CD4^+ Treg clones were established from CD4^+ tumor-infiltrating lymphocytes (TIL102 and TIL164) and maintained in RPMI 1640 medium containing 10% human AB serum and recombinant IL-2 (300 IU/ml) using methods well known in the art (See, e.g., H. Y. Wang et al., Immunity 20, 107-118 (2004)). Treg clones derived from TIL102 or TIL164 cells were pooled and designated Treg102 or Treg164. Naturally occurring CD4^+ CD25^+ Treg cells were obtained by sorting CD4^+ T cell populations from fresh PBMCs after staining with anti-CD4 and anti-CD25 antibodies. To obtain optimal expansion, the OKT3 expansion method was performed using methods well known in the art (See, e.g., H. Y. Wang et al., Immunity 20, 107-118 (2004)). T cell clones were maintained at a low IL-2 concentration (300 IU/ml). Melanoma cell lines and EBV-transformed B-cell lines used in this study were cultured in RPMI 1640 medium containing 10% FCS. Human embryonic kidney (HEK) 293 and Epstein-Barr virus (EBV)-transformed B cell lines were maintained in RPMI 1640 with 10% fetal calf serum (FCS).
B. Proliferation assay without DCs: 1×10^5 näive CD4 T cells were cultured with regulatory T cells at different ratios (1: 0.2, 1:0.1 and 1:0.05) in anti-CD3 mAb-coated (2 ug/ml) 96-well plates in the presence or absence of the following TLR ligands or cytokines: CpG-A (3 ug/ml), CpG-B (3 ug/ml), LPS (100 ng/ml), TNF.-α (20 ng/ml), IFN-α (100 ng/ml), or IL-6 (100 ng/ml). After 56 h of culture, [3H]thymidine was added at a final concentration of 1 uCi/well, followed by an additional 16 h of culture. The incorporation of [^3H]thymidine was measured with a liquid scintillation counter.
Näive CD4^+ T cell proliferation experiments were performed similar to those in FIG. 1A, but in the absence of DCs. […] The reversal effect of CpG-A (SEQ ID NO: 1) contrasts with the failure of CpG-B (SEQ ID NO: 2), LPS, TNF-α, IL-6 or IFN-α to block the suppressive activity of CD4^+ Treg cells against naive CD4^+ T cells (FIG. 1B).
To further define the CpG-A (SEQ ID NO: 1) sequences responsible for the observed reversal effect, CpG-NG (SEQ ID NO: 5) and Poly-G10 (SEQ ID NO: 6), were tested for their ability to reverse the suppressive function of Treg cells. Naive CD4^+ T cells were mixed with CD4^+ Treg cells in anti-CD3 antibody-coated 96-wells with 200 μl of medium containing CpG-NG (SEQ ID NO: 5), CpG-A (SEQ ID NO: 1) or Poly-G10 (SEQ ID NO: 6). The proliferation assay was conducted as described in FIG. 1. […] For the experiments shown in FIG. 2B, naive CD4^+ T cells were mixed with CD4^+ Treg cells in anti-CD3 antibody-coated 96-wells with 200 μl of medium containing Poly-A10 (SEQ ID NO: 7), Poly-T10 (SEQ ID NO: 9) or Poly-C10 (SEQ ID NO: 8), while the Poly-G10 (SEQ ID NO: 6) oligonucleotides served as a positive control.
A series of oligonucleotides with decreasing numbers of guanosine nucleosides was constructed to determine the minimal number required for the reversal effect. For the experiments in FIG. 2C, CD4^+ T cells were mixed with CD4^+ Treg cells in anti-CD3 antibody-coated 96-wells containing medium with protected phosphorothioate linked guanosine nucleoside containing oligonucleotides of various lengths, while the unprotected five guanosines (SEQ ID NO: 10) served as a control.

Compound	reversal of Treg cell-mediated suppression of naive CD4+ T cell proliferation
C4G1: a single guanosine plus other nucleotides with protected phosphorothioate linkages (DNA dC*dC*dG*dC*dC)	found to reverse the suppressive activity of Treg cells
T4G1: a single guanosine plus other nucleotides with protected phosphorothioate linkages (DNA dT*dT*dG*dT*dT)	found to reverse the suppressive activity of Treg cells
A4G1: a single guanosine plus other nucleotides with protected phosphorothioate linkages (DNA dA*dA*dG*dA*dA)	found to reverse the suppressive activity of Treg cells
TNF-α	failure
CpG-NG: oligonucleotide derived from CpG-A, tested to define the sequences responsible for reversal (DNA AAAAGACGATCGTCAAAAAA; listed as DNA, chemistry not given here)	Treg suppression reversal was lost
Poly-C10: Poly-C oligonucleotide with the same protected phosphorothioate backbone (DNA dC*dC*dC*dC*dC*dC*dC*dC*dC*dC)	failed to reverse the suppressive function of Treg cells; also recorded: lacked the ability to reverse the suppressive activity of Treg cells
G5: unprotected five guanosines with a regular phosphodiester backbone (DNA GGGGG; unmodified DNA)	failed to reverse the suppressive activity of Treg cells
Poly-A10: Poly-A oligonucleotide with the same protected phosphorothioate backbone (DNA dA*dA*dA*dA*dA*dA*dA*dA*dA*dA)	failed to reverse the suppressive function of Treg cells; also recorded: lacked the ability to reverse the suppressive activity of Treg cells
CpG-B: CpG-B oligonucleotide, ligand for TLR9 (DNA GGGGGAGCATGCTGCGGGGG; listed as DNA, chemistry not given here)	failure

tested on: CD4+ Treg cells; experiment: Pretreatment of Treg cells, then proliferation assay with naive CD4+ T cells (without DCs); type: cell-based, human; conditions: Treg cells pretreated 3 days, washed, then mixed with naive CD4+ T cells
Method: C. Pretreatment of Treg cells: 1×10^6 Treg cells were cultured in medium containing CpG-A (3 ug/ml), CpG-B (3 ug/ml), LPS (100 ng/ml), TNF.-α (20 ng/ml), IFN-α (100 ng/ml) or IL-6 (100 ng/ml) for 3 days. After three washes, the pretreated Treg cells were cultured with näive CD4^+ T cells in anti-CD3 mAb-coated plates (without DCs) to determine their suppressive function. After 56 h of culture, [3H]thymidine was added at a final concentration of 1 uCi/well, and cultured for an additional 16 h. The incorporation of [^3H]thymidine was measured with a liquid scintillation counter.
To exclude the possibility that the purified naive CD4^+ T cells might have been contaminated with a small number of monocytes or DCs, cultured CD4^+ Treg cells (100% purity) were pretreated with CpG-A (SEQ ID NO: 1) for 3 days. After three washes, the pretreated CD4^+ Treg cells were mixed with naive CD4^+ T cells in anti-CD3 antibody-coated plates to evaluate their ability to suppress the proliferation of naive CD4^+ T cells.
To determine whether the CpG motif in CpG A confers the ability to reverse the suppressive function of CD4^+ Treg cells, CD4^+ Treg cell lines were pretreated for 3 days with CpG-A (SEQ ID NO: 1), non-CpG-A (CG changed to GC in CpG-A; SEQ ID NO: 3), CpG B (SEQ ID NO: 2) or non-CpG-B (CG changed to GC in CpG-B; SEQ ID NO: 4), and used them in proliferation assays following extensive washes.
Treg cells were pretreated with Poly-G2 (SEQ ID NO: 15) in different concentrations of chloroquine to examine whether acidification is required for the function of guanosine containing oligonucleotides. After extensive washes, the pretreated Treg cells were used for functional assays.

Compound	reversal of suppressive function of CD4+ Treg cells after pretreatment
non-CpG-B: CG changed to GC in CpG-B (DNA TGCTGCTTTTGTGCTTTTGTGCTT; listed as DNA, chemistry not given here)	lacked any discernible effect
CpG-B: CpG-B oligonucleotide, ligand for TLR9 (DNA GGGGGAGCATGCTGCGGGGG; listed as DNA, chemistry not given here)	lacked any discernible effect

same assay, conditions: pretreatment together with chloroquine

Compound	reversal effect with Treg cells pretreated in different concentrations of chloroquine
Poly-G2: guanosine containing oligonucleotide (DNA AAGGA; listed as DNA, chemistry not given here)	decreased with increasing concentrations of chloroquine

tested on: antigen-specific Treg102 and Treg164 cells; experiment: TLR ligand assays: reversal of Treg suppression of naive CD4+ T cell proliferation; type: cell-based, human; conditions: Treg102, Treg164 or naturally occurring CD4+CD25+ Treg cells (FIG. 4A-B)
Method: Näive CD4 T+cells were purified from PBMCs by using microbeads (Miltenvi Biotec). Näive CD4^+ T cells ([…]) were cultured with regulatory T cells at a ratio of 10:1 in OKT3 (2 ug/ml)-coated, U bottomed 96-well plates containing the following ligands: LPS (100 ng/ml), imiquimod (10 μg/ml), loxoribine (500 μM), poly(I:C) (25 μg/ml), ssRNA40/LyoVec (3 μg/ml), ssRNA33/LyoVec (3 μg/ml), pam3CSK4 (200 ng/ml) and flagellin (10 μg/ml) were purchased from Invivogene (San Diego, Calif.), while CpG-A (3 μg/ml), CpG-B (3 μg/ml) and Poly-G oligonucleotides (3 μg/ml) were synthesized in Integrated DNA Technologies, Inc (Coralville, Iowa). Functional assays were identical to those described above.
If the TLR8-MyD88-IRAK4 signaling pathway is necessary and sufficient for direct reversal of the suppressive function of Treg cells, it should be possible to produce that effect with natural ligands for human TLR8. For FIG. 4A-B, naive CD4^+ T cells were mixed with Treg102, Treg164 or naturally occurring CD4^+ CD25^+ Treg cells in anti-CD3 antibody-coated wells in the presence of different TLR ligands. Data are presented as means±SD and represent results from three independent experiments.

Compound	restoration of proliferation of naive CD4+ T cells in the presence of Treg cells
flagellin	failed to restore the proliferation of naive CD4^+ T cells
poly(I:C)	failed to restore the proliferation of naive CD4^+ T cells
C=CCn1c(=O)n([C@@H]2O[C@H](CO)[C@@H](O)[C@H]2O)c2nc(N)[nH]c(=O)c21 [loxoribine]	failed to restore the proliferation of naive CD4^+ T cells
CpG-B: CpG-B oligonucleotide, ligand for TLR9 (DNA GGGGGAGCATGCTGCGGGGG; listed as DNA, chemistry not given here)	failed to restore the proliferation of naive CD4^+ T cells
